Source: US20260034112A1, “MULTI-CYCLIC IRAK1 AND IRAK4 INHIBITING COMPOUNDS AND USES THEREOF” (CHILDREN'S HOSPITAL MEDICAL CENTER, priority 2022, published 2026)

Test system: THP1 cells
Type: cell-based, human
Details: CA-4948 vs DMSO in THP1 cells

Cc1cc(-c2nc(C(=O)Nc3cc4oc(N5CCOCC5)nc4nc3N3CC[C@@H](O)C3)co2)ccn1 [CA-4948, emavusertib]
Log(FC) of gene LOC101929243: 0.7647 | Log(FC) of gene LOC101929264: 0.8417 | Log(FC) of gene LOC101929280: 0.7936 | Log(FC) of gene LOC101929661: 0.748 | Log(FC) of gene LOC101929747: 0.6127 | Log(FC) of gene LOC101929814: −0.8463 | Log(FC) of gene LOC102467073: 0.73 | Log(FC) of gene LOC102723589: 0.8153 | Log(FC) of gene LOC102723616: 0.7122 | Log(FC) of gene LOC102723714: 0.6674 | Log(FC) of gene LOC102723959: 0.9881 | Log(FC) of gene LOC102723975: 1.408 | Log(FC) of gene LOC102724098: −0.6399 | Log(FC) of gene LOC102724169: 0.726 | Log(FC) of gene LOC102724217: 0.6865 | Log(FC) of gene LOC102724235: 0.7375 | Log(FC) of gene LOC102724248: 0.652 | Log(FC) of gene LOC102724409: 1.429 | Log(FC) of gene LOC102724528: −0.8481 | Log(FC) of gene LOC102724545: 0.8513 | Log(FC) of gene LPAR2: 0.7255 | Log(FC) of gene M1AP: 0.7754 | Log(FC) of gene MAMDC4: 0.628 | Log(FC) of gene MBLAC1: −0.6134 | Log(FC) of gene MDGA1: 0.7307 | Log(FC) of gene METTL12: 0.6315 | Log(FC) of gene MFI2-AS1: 0.5997 | Log(FC) of gene MGC12916: −0.9124 | Log(FC) of gene MGC16142: 0.5952 | Log(FC) of gene MIR570: 1.064 | Log(FC) of gene MIR1244-1: 0.6309 | Log(FC) of gene MIR3187: 1.121 | Log(FC) of gene MROH6: 0.8417 | Log(FC) of gene MYLK-AS1: 1.091 | Log(FC) of gene MYO7B: 0.6068 | Log(FC) of gene NGFR: 0.8097 | Log(FC) of gene NOL3: 0.6401 | Log(FC) of gene NPFF: 0.6633 | Log(FC) of gene NPIPA3: 1.643 | Log(FC) of gene NPIPA8: 0.8183 | Log(FC) of gene ORM1: 0.6834 | Log(FC) of gene PAPPA2: 0.8397 | Log(FC) of gene PAQR6: 0.6274 | Log(FC) of gene PAX8: −0.6687 | Log(FC) of gene PCBP3: 0.5937 | Log(FC) of gene PCOLCE2: −0.6424 | Log(FC) of gene PDE5A: 0.8121 | Log(FC) of gene PDPN: 0.7486 | Log(FC) of gene PITX2: 0.6882 | Log(FC) of gene POLN: 1.016 | Log(FC) of gene POTEE: 1.077 | Log(FC) of gene PPIEL: 0.6279 | Log(FC) of gene PPP1R13L: 0.6598 | Log(FC) of gene PPP1R32: 0.5902 | Log(FC) of gene PROB1: 0.6297 | Log(FC) of gene PRR22: 1.272 | Log(FC) of gene PRSS53: 0.79 | Log(FC) of gene PSMG3-AS1: 0.6249 | Log(FC) of gene PTGER1: 0.6218 | Log(FC) of gene QRICH2: 0.9066 | Log(FC) of gene RAPGEFL1: 0.6118 | Log(FC) of gene RARRES3: 0.6342 | Log(FC) of gene RASSF8-AS1: −0.6459 | Log(FC) of gene RCN3: 0.6431 | Log(FC) of gene RIMS2: −0.6856 | Log(FC) of gene RN7SK: −0.7805 | Log(FC) of gene RN7SL1: −0.6652 | Log(FC) of gene RNU2-2P: −3.126 | Log(FC) of gene RNU86: 0.6578 | Log(FC) of gene RNU105A: −0.7199 | Log(FC) of gene RP3-476K8.3: 0.6781 | Log(FC) of gene RP11-261C10.3: −0.7243 | Log(FC) of gene RP11-307C12.11: 0.6268 | Log(FC) of gene RP11-344E13.3: 0.712 | Log(FC) of gene RP11-454P21.1: 0.5869 | Log(FC) of gene RP11-540A21.2: −0.8218 | Log(FC) of gene RPPH1: −1.864 | Log(FC) of gene RPS18P9: 0.9157 | Log(FC) of gene RPSAP9: −0.6976 | Log(FC) of gene RUFY4: 0.9698 | Log(FC) of gene SAMD5: −0.6977 | Log(FC) of gene SAMD13: −0.6418 | Log(FC) of gene SAP25: 0.962 | Log(FC) of gene SARM1: 0.783 | Log(FC) of gene SCART1: 1.38 | Log(FC) of gene SCN8A: 0.7836 | Log(FC) of gene SCXB: 0.8721 | Log(FC) of gene SEC31B: 0.7359 | Log(FC) of gene SEMA3B: 0.6963 | Log(FC) of gene SEMA3C: −0.6821 | Log(FC) of gene SEMG1: −0.6203 | Log(FC) of gene SERPINB2: −0.6225 | Log(FC) of gene SIGLEC16: 0.7305 | Log(FC) of gene SIM1: −0.8741 | Log(FC) of gene SLC2A14: 0.5944 | Log(FC) of gene SLC7A5P2: 0.8202 | Log(FC) of gene SLC7A11: −0.9711 | Log(FC) of gene SLC22A20: 0.7923 | Log(FC) of gene SLC25A5-AS1: −0.5981 | Log(FC) of gene SLCO2B1: −0.6999 | Log(FC) of gene SLFNL1: 0.599 | Log(FC) of gene SLFNL1-AS1: 0.7053 | Log(FC) of gene SMA4: −0.6311 | Log(FC) of gene SNORD3A: −1.579 | Log(FC) of gene SNORD30: 1.062 | Log(FC) of gene SNORD79: 0.5858 | Log(FC) of gene SNX32: 0.6555 | Log(FC) of gene SPATA41: 0.6171 | Log(FC) of gene SPATC1: 1.175 | Log(FC) of gene SPRED1: −0.6296 | Log(FC) of gene SPTBN5: 1.272 | Log(FC) of gene ST13P4: −0.623 | Log(FC) of gene STX18-AS1: 0.8594 | Log(FC) of gene STXBP5-AS1: 0.6561 | Log(FC) of gene SYDE2: −0.6236 | Log(FC) of gene SYTL2: 0.7254 | Log(FC) of gene TCAM1P: 0.6669 | Log(FC) of gene TEKT4P2: 0.8324 | Log(FC) of gene TESPA1: 0.724 | Log(FC) of gene TLR5: 0.7065 | Log(FC) of gene TMEM9B-AS1: 0.8758 | Log(FC) of gene TMEM86B: 0.6481 | Log(FC) of gene TMEM145: 0.9943 | Log(FC) of gene TMEM150A: −0.8108 | Log(FC) of gene TMEM175: 0.6594 | Log(FC) of gene TMEM191A: 0.6824 | Log(FC) of gene TMEM254-AS1: 0.767 | Log(FC) of gene TMEM255A: −0.5904 | Log(FC) of gene TMPRSS13: 0.6639 | Log(FC) of gene TNFAIP8L2-SCNM1: −1.749 | Log(FC) of gene TNXB: 1.806 | Log(FC) of gene TP53I3: 0.7187 | Log(FC) of gene TPD52L1: 0.7014 | Log(FC) of gene TRIM72: 0.5946 | Log(FC) of gene TSKU: −0.6402 | Log(FC) of gene TSPEAR-AS1: 0.5855 | Log(FC) of gene TTC4: −0.6304 | Log(FC) of gene TUBA1A: 0.5916 | Log(FC) of gene TXLNB: 0.8051 | Log(FC) of gene UCN: 1.177 | Log(FC) of gene UCP3: 0.6963 | Log(FC) of gene ULK4P1: −0.9282 | Log(FC) of gene UNC5CL: 0.8031 | Log(FC) of gene VAMP5: 0.6392 | Log(FC) of gene VWA7: 0.8656 | Log(FC) of gene WDFY3-AS2: 0.6617 | Log(FC) of gene WNK4: 1.507 | Log(FC) of gene WT1-AS: 0.6396 | Log(FC) of gene YJEFN3: 1.024 | Log(FC) of gene ZCWPW2: −0.722 | Log(FC) of gene ZDHHC11: 1.406 | Log(FC) of gene ZNF284: −0.5982 | Log(FC) of gene ZNF491: 0.7713 | Log(FC) of gene ZNF891: −0.7965 | Log(FC) of gene ZP3: 0.9339 | Log(FC) of gene ZSWIM8-AS1: 0.9316
